Source: patent publication US12472214B2, “Bacterial strains, the compositions thereof and use thereof in a method for the treatment of vitamin D deficiency, and disorders associated therewith” (priority 2020, dated 2025)

Assays:
[1] = In vivo murine study: 25(OH)D in serum by ELISA (bioavailability of vitamin D); set-up: species or system mice (Cd1); conditions: mice; one-week daily administration (groups 3, 5, 6)
Procedure: Mice (8-week old adult male Cd1) were enclosure-adapted and fed on a conventional diet. Mice were housed in cages and kept in a temperature-controlled environment (22±2° C.) with a 12-hour light/dark cycle with food for regular chow and tap water supplied ad libitum. After one week of acclimatisation, the animals were then randomly divided into 6 experimental groups of 6 mice each and each group was randomly assigned to one of the scheduled treatments (Table 1).
The strain Lactobacillus paracasei DG® CNCM I-1572 (in short, L paracasei DG®) was sub-cultured in MRS agar and a single colony was inoculated into culture broth and incubated for 18 hours at 37° C. under microaerophilic conditions. […] The optical density (OD 600 nm) was then measured and the suspension was diluted to OD=1.00. […] The decimal count of aliquots on selective medium allowed to quantify the live cell concentration equal to 1.6×10^9 CFU/ml of suspension (2.4×10^8 CFU/aliquot). […]
Mice were sacrificed 3 hours after the end of administration following fluorane anaesthesia and subsequent collection of blood by means of cardiac puncture and removal of the terminal ileum. […] The terminal ileum was first washed with PBS and then subjected to the collection of mucosa and the subsequent freezing in liquid nitrogen. mRNA was then extracted for the quantification of the expression of the vitamin D receptor at mucosal level. […]

vitamin D receptor VDR = experiment: In vivo murine study: quantification of vitamin D receptor mRNA in ileal mucosa (quantitative PCR); set-up: species or system mice (Cd1); conditions: mice
Procedure: Mice were sacrificed 3 hours after the end of administration following fluorane anaesthesia and subsequent collection of blood by means of cardiac puncture and removal of the terminal ileum. The blood was centrifuged for the separation of serum which was then frozen until the subsequent dose of vitamin D3, in the form of 25-hydroxy-vitamin D (abbreviated as […] 25(OH)D). The terminal ileum was first washed with PBS and then subjected to the collection of mucosa and the subsequent freezing in liquid nitrogen. mRNA was then extracted for the quantification of the expression of the vitamin D receptor at mucosal level.
The terminal ileum was first washed with PBS and then subjected to the collection of mucosa and the subsequent freezing in liquid nitrogen. mRNA was then extracted for the quantification of the expression of the vitamin D receptor at mucosal level. From an operational point of view, total RNA extraction from the mucosa was performed first, then a 30 ng aliquot of total RNA was reverse transcribed to cDNA and then subjected to a quantitative PCR with primers for the vitamin D receptor VDR (described by Wu et al. 2010). Below is the summary of the sequence of primers: […]
RT-PCR analyses were also conducted using an “absolute” negative control and a housekeeping gene to normalise the results obtained (e.g. β-actin).

SMILES: C=C1CC[C@H](O)C/C1=C/C=C1\CCC[C@]2(C)[C@@H]([C@H](C)CCCC(C)C)CC[C@@H]12 [vitamin D3, cholecalciferol]
- change in serum levels of 25(OH)D versus treatment-free control group (statistical significance) [1]: did not generate any statistically significant change
- vitamin D receptor mRNA expression level in ileal mucosa versus treatment-free control (vitamin D receptor VDR; one-week daily administration (groups 3, 5, 6)): even more marked decrease
- vitamin D receptor mRNA expression level in ileal mucosa versus treatment-free control (vitamin D receptor VDR; vitamin D3 single dose (groups 2 and 4)): statistically significant decrease
